Results published in US20230017045A1, “PYRIDINE AND PYRIMIDINE CARBOXYLATE HERBICIDES AND METHODS OF USE THEREOF” (Dow AgroSciences LLC, priority 2017, published 2023).
Where two headings read alike, the source gives them in different places.

Experiments:
test plant species = experiment: Post-emergent herbicidal activity test (greenhouse, foliar spray, visual growth reduction); type: in vivo; settings: post-emergence, 336 h, 140 g ai/ha, 14 days after application
Outline: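 Seedlings were raised 7-21 d in a greenhouse under a 15 h photoperiod until the first or second true leaf. Each compound, dissolved in acetone:DMSO 97:3 and diluted into a surfactant-containing spray mixture, was then applied at 187 L/ha. Plants were subirrigated, and growth reduction was scored visually at 14 d.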

[1] = ALOMY: blackgrass (Alopecurus myosuroides), read-out: Visual Growth Reduction (%) 14 Days After Application, ALOMY
[2] = AMARE: redroot pigweed (Amaranthus retroflexus), read-out: Visual Growth Reduction (%) 14 Days After Application, AMARE
[3] = AVEFA: wild oat (Avena fatua), read-out: Visual Growth Reduction (%) 14 Days After Application, AVEFA
[4] = CHEAL: lambsquarters (Chenopodium album), read-out: Visual Growth Reduction (%) 14 Days After Application, CHEAL
[5] = CIRAR: canada thistle (Cirsium arvense), read-out: Visual Growth Reduction (%) 14 Days After Application, CIRAR
[6] = CYPES: yellow nutsedge (Cyperus esculentus), read-out: Visual Growth Reduction (%) 14 Days After Application, CYPES
[7] = DIGSA: crabgrass (Digitaria sanguinalis), read-out: Visual Growth Reduction (%) 14 Days After Application, DIGSA
[8] = ECHCG: barnyardgrass (Echinochloa crus-galli), read-out: Visual Growth Reduction (%) 14 Days After Application, ECHCG
[9] = IPOHE: ivy-leaf morning glory (Ipomoea hederacea), read-out: Visual Growth Reduction (%) 14 Days After Application, IPOHE
[10] = KCHSC: kochia (Bassia scoparia), read-out: Visual Growth Reduction (%) 14 Days After Application, KCHSC
[11] = ORYSA: rice (Oryza sativa), read-out: Visual Growth Reduction (%) 14 Days After Application, ORYSA
[12] = SETFA: giant foxtail (Setaria faberi), read-out: Visual Growth Reduction (%) 14 Days After Application, SETFA
[13] = SORVU: grain sorghum (Sorghum vulgare), read-out: Visual Growth Reduction (%) 14 Days After Application, SORVU
[14] = STEME: common chickweed (Stellaria media), read-out: Visual Growth Reduction (%) 14 Days After Application, STEME
[15] = TRZAS: wheat, spring (Triticum aestivum), read-out: Visual Growth Reduction (%) 14 Days After Application, TRZAS

Structure (SMILES)	pest or weed control at 140 g/ha (test plant species; [1]) [%]	pest or weed control at 140 g/ha (test plant species; [2]) [%]	pest or weed control at 140 g/ha (test plant species; [3]) [%]	pest or weed control at 140 g/ha (test plant species; [4]) [%]	pest or weed control at 140 g/ha (test plant species; [5]) [%]	pest or weed control at 140 g/ha (test plant species; [6]) [%]	pest or weed control at 140 g/ha (test plant species; [7]) [%]	pest or weed control at 140 g/ha (test plant species; [8]) [%]	pest or weed control at 140 g/ha (test plant species; [9]) [%]	pest or weed control at 140 g/ha (test plant species; [10]) [%]	pest or weed control at 140 g/ha (test plant species; [11]) [%]	pest or weed control at 140 g/ha (test plant species; [12]) [%]	pest or weed control at 140 g/ha (test plant species; [13]) [%]	pest or weed control at 140 g/ha (test plant species; [14]) [%]	pest or weed control at 140 g/ha (test plant species; [15]) [%]	melting point [°C]
COC(=O)c1nc(-c2ccc(C(F)(F)F)cc2Cl)cc(C)c1Cl [F33, methyl 3-chloro-6-(2-chloro-4-(trifluoromethyl)phenyl)-4-methylpicolinate]	0 to 29	0 to 29	0 to 29	45 to 59	45 to 59	0 to 29	30 to 44	0 to 29	85 to 94	0 to 29	0 to 29	0 to 29	60 to 74	0 to 29	0 to 29	61 to 63
COC(=O)c1nc(-c2ccc(C(F)(F)F)cc2Cl)c(F)c(OC)c1Cl [F42, methyl 3-chloro-6-(2-chloro-4-(trifluoromethyl)phenyl)-5-fluoro-4-methoxypicolinate]	0 to 29	30 to 44	0 to 29	85 to 94	60 to 74	0 to 29	0 to 29	0 to 29	85 to 94	45 to 59	0 to 29	0 to 29	75 to 84	0 to 29	0 to 29	65 to 67
O=C(OCc1ccccc1)c1nc(-c2ccc(C(F)(F)F)cc2Cl)ccc1Cl [F44, benzyl 3-chloro-6-(2-chloro-4-(trifluoromethyl)phenyl)picolinate]	30 to 44	95 to 100	45 to 59	95 to 100	95 to 100	0 to 29	75 to 84	45 to 59	95 to 100	85 to 94	0 to 29	85 to 94	85 to 94	0 to 29	75 to 84	56 to 57
COC(=O)c1nc(-c2ccc(C(F)(F)F)cc2Cl)c(Cl)cc1Cl [F103, Methyl 3,5-dichloro-6-(2-chloro-4-(trifluoromethyl)phenyl)picolinate]	0 to 29	60 to 74	0 to 29	75 to 84	85 to 94	0 to 29	30 to 44	0 to 29	95 to 100	75 to 84	0 to 29	60 to 74	75 to 84	0 to 29	0 to 29	85 to 86
